Results on 14 compounds are retold here after PubChem BioAssay (NCI).

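Each compound was tested at five concentrations against cells in 96-well plates for 48 hours. TGI: concentration producing complete growth inhibition.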

Test systems include ACHN renal; EKVX NSCLC; K-562 leukemia; SF-539 CNS; SNB-19 CNS; SW-620 colon; T-47D breast; U251 CNS; UACC-62 melanoma; UO-31 renal.
Assay in all cases: DTP human tumour cell line panel, 48 h

`CC(=O)OC(CC(C)C)P1(=O)N(CC(C)(C)C)[C@@H]2CCCC[C@H]2N1CC(C)(C)C` (stereo partly drawn): the TGI (in general, the concentration at which net growth stops) with ACHN renal stood at 19.3 µM; with EKVX NSCLC, 23.5 µM; with K-562 leukemia it was 23.9 µM; in the assay with SF-539 CNS, 22.3 µM; in the assay on SNB-19 CNS, 21.9 µM; in the assay on SW-620 colon, 29 µM. In addition, the TGI with T-47D breast was 19.7 µM; in the assay with U251 CNS it was 20.1 µM; with UACC-62 melanoma it was 23.3 µM; in the assay on UO-31 renal it was 21.2 µM.

Take `COC(=O)C1=C(O)C(C(=O)OC)[C@]2(O)[C@H](C(=O)OC)[C@H]1C[C@@H](c1cccc(OC)c1)[C@H]2C(=O)OC` (stereo partly drawn): the TGI in the assay with ACHN renal is 40.4 µM; in the assay with EKVX NSCLC, above 100 µM; with K-562 leukemia it was above 100 µM; with SF-539 CNS, above 100 µM; in the assay on SNB-19 CNS, 81.7 µM; with SW-620 colon it was above 100 µM. Moreover, the TGI in the assay with T-47D breast was above 100 µM; in the assay with U251 CNS, 68.7 µM; with UACC-62 melanoma, 35.1 µM; with UO-31 renal, 34.7 µM.

Turning to `CC(=O)N1CC(C)(C)c2c1cc(C)c(O)c2C`, the concentration for total growth inhibition (TGI) in the assay on ACHN renal, in the assay on EKVX NSCLC, in the assay on K-562 leukemia, in the assay on SF-539 CNS, in the assay on SNB-19 CNS and in the assay on SW-620 colon was above 100 µM in each case. Also, the TGI in the assay on T-47D breast, in the assay on U251 CNS, in the assay with UACC-62 melanoma and in the assay with UO-31 renal was above 100 µM each time.

For the compound `CCN(CC)c1ccc2c(c1)Oc1ccc(N(C(C)=O)c3ccccc3)cc1C21OC(=O)c2ccccc21` (stereo not drawn), the TGI in the assay with ACHN renal, with EKVX NSCLC, with K-562 leukemia, with SF-539 CNS, in the assay with SNB-19 CNS and with SW-620 colon was above 100 µM each time. Besides, the TGI in the assay on T-47D breast, in the assay on U251 CNS, in the assay on UACC-62 melanoma and in the assay with UO-31 renal was above 100 µM each time.

Consider `O=C1OC(C2Cc3ccccc3C2=O)c2ccccc21` (stereo not drawn), for which the TGI with ACHN renal, in the assay on EKVX NSCLC, in the assay with K-562 leukemia, in the assay with SF-539 CNS, in the assay with SNB-19 CNS and in the assay with SW-620 colon was above 100 µM in each case. For the same compound, the TGI in the assay with T-47D breast, in the assay with U251 CNS, in the assay with UACC-62 melanoma and in the assay with UO-31 renal was above 100 µM each time.

For the compound `CC(=O)Nc1ccc(N2C(=O)CS(=O)(=O)C2c2cccc(Oc3ccccc3)c2)cc1` (stereo not drawn), the TGI in the assay on ACHN renal came to 36.3 µM; with EKVX NSCLC it was 35.5 µM; in the assay with K-562 leukemia, 55 µM; in the assay with SF-539 CNS it was 36.4 µM; with SNB-19 CNS it was 36.2 µM; in the assay on SW-620 colon it was 80.5 µM. The TGI in the assay on T-47D breast is 58.3 µM; in the assay with U251 CNS it was 32.6 µM; in the assay on UACC-62 melanoma, 27.9 µM; in the assay with UO-31 renal, 33.8 µM.

`CC(/C=N/N(C)C1=NCCCCN1)=N/N(C)C1=NCCCCN1`: the TGI in the assay with ACHN renal, with EKVX NSCLC, in the assay on K-562 leukemia, in the assay with SF-539 CNS, in the assay on SNB-19 CNS and in the assay with SW-620 colon was above 100 µM each time. The TGI in the assay on T-47D breast, in the assay with U251 CNS, in the assay on UACC-62 melanoma and in the assay on UO-31 renal was above 100 µM throughout.

`CC(=O)[C@H]1CC[C@H]2[C@@H]3CCC4=CC(=O)CC[C@]4(C)[C@H]3CC[C@]12C`: the TGI in the assay with ACHN renal is 75.2 µM; with EKVX NSCLC, 9.66 µM; with K-562 leukemia, 43.2 µM; with SF-539 CNS it was 34.1 µM; in the assay on SNB-19 CNS it was above 100 µM; with SW-620 colon, above 100 µM. Also, the TGI with T-47D breast was 57.8 µM; in the assay with U251 CNS it was 34.1 µM; in the assay with UACC-62 melanoma, 30.1 µM; in the assay with UO-31 renal it was 26.4 µM.

`O=C1CSC(c2cccc(Cl)c2)N1c1c(O)c(Cl)cc(Br)c1Cl` (stereo not drawn): the TGI in the assay with ACHN renal is 27.9 µM; with EKVX NSCLC, above 100 µM; in the assay with K-562 leukemia, above 100 µM; in the assay with SF-539 CNS, above 100 µM; in the assay on SNB-19 CNS it was above 100 µM; with SW-620 colon, 32.7 µM. Besides, the TGI with T-47D breast was determined as 41.7 µM; in the assay on U251 CNS it was 72.3 µM; in the assay on UACC-62 melanoma, 56.9 µM; in the assay on UO-31 renal, 28.9 µM.

Take `O=C(O)CS(=O)c1ccc2c3c(cccc13)C(=O)c1ccccc1-2` (stereo not drawn): the TGI in the assay on ACHN renal, in the assay on EKVX NSCLC, in the assay on K-562 leukemia, in the assay with SF-539 CNS, with SNB-19 CNS and with SW-620 colon was above 100 µM each time. For the same compound, the TGI in the assay on T-47D breast, with U251 CNS, with UACC-62 melanoma and in the assay on UO-31 renal was above 100 µM in each case.

As for `O=c1[nH]nc(-c2ccc([N+](=O)[O-])cc2)n1/N=C/c1ccc([N+](=O)[O-])cc1`, the TGI with ACHN renal, with EKVX NSCLC, in the assay with K-562 leukemia, with SF-539 CNS, with SNB-19 CNS and in the assay on SW-620 colon was above 100 µM throughout. The TGI in the assay on T-47D breast, with U251 CNS, in the assay on UACC-62 melanoma and in the assay with UO-31 renal was above 100 µM throughout.

As for `CN(C)Cc1cc(C(C)(C)C)cc(CNC2CCCCC2)c1O`, the TGI in the assay on ACHN renal is above 100 µM; in the assay with EKVX NSCLC, above 100 µM; with K-562 leukemia, 76.2 µM; in the assay on SF-539 CNS it was 63.5 µM; in the assay with SNB-19 CNS, above 100 µM; in the assay with SW-620 colon it was above 100 µM. Also, the TGI was above 100 µM in the assay on T-47D breast, above 100 µM with U251 CNS, above 100 µM in the assay on UACC-62 melanoma and 34.6 µM with UO-31 renal.

As for `CC(=O)c1cc2c(s1)C(=O)c1scc(C(C)=O)c1C2=O`, the TGI in the assay on ACHN renal is 0.828 µM; with EKVX NSCLC, 1.34 µM; in the assay on K-562 leukemia it was 3.54 µM; in the assay on SF-539 CNS, 2.44 µM; in the assay with SNB-19 CNS it was 2.42 µM; in the assay with T-47D breast, 0.838 µM. Besides, the TGI amounted to 0.628 µM with U251 CNS, 0.692 µM in the assay with UACC-62 melanoma and 1.31 µM in the assay with UO-31 renal.

In the case of `NC(CCl)=NC1CN2CCC1CC2` (stereo not drawn), the TGI in the assay on ACHN renal, in the assay on EKVX NSCLC, in the assay with K-562 leukemia, in the assay with SF-539 CNS, in the assay with SNB-19 CNS and with SW-620 colon was above 100 µM each time. Further, the TGI with T-47D breast, with U251 CNS and in the assay on UACC-62 melanoma was above 100 µM each time.
